Measured values reported in US8906914B2, “Ethylene diamine modulators of fatty acid hydrolase” (priority 2009, dated 2014).
pIC50: −log10 of the molar value. Counter-ions that a name gives are not always drawn.

What was measured:
Rat FAAH-1 = target: T1, Rat FAAH-1 (Rattus norvegicus, UniProt P97612); test: Rat FAAH-1 assay (Assay Method 2), 3H-anandamide hydrolysis in cell homogenate; format: biochemical
T1 construct: expressed in transfected cells
T1 sequence (P97612 1-579): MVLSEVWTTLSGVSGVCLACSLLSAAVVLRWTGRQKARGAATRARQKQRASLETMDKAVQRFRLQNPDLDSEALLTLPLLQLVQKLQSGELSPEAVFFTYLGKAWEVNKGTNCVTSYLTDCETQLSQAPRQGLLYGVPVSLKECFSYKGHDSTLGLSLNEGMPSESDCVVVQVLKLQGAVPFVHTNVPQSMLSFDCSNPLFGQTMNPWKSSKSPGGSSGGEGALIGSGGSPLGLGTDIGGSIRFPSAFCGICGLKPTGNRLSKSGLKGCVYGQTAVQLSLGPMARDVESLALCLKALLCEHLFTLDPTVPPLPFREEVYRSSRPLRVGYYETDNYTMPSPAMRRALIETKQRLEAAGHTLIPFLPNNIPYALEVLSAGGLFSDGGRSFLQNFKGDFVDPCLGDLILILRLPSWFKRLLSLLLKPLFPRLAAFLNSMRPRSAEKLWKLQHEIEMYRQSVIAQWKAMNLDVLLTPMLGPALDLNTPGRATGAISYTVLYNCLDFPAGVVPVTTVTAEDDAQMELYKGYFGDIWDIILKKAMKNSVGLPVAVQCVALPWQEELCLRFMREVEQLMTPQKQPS
Protocol: A. Transfection of Cells with Rat FAAH-1
(§1) A 10-cm tissue culture dish with a confluent monolayer of SK-N-MC cells was split 2 days (d) prior to transfection. Using sterile technique, the media was removed and the cells were detached from the dish by the addition of trypsin. One fifth of the cells were then placed onto a new 10-cm dish. Cells were grown in a 37° C. incubator with 5% CO2 in Minimal Essential Media Eagle with 10% Fetal Bovine Serum. After 2 d, cells were approximately 80% confluent. These cells were removed from the dish with trypsin and pelleted in a clinical centrifuge. The pellet was re-suspended in 400 μL complete media and transferred to an electroporation cuvette with a 0.4 cm gap between the electrodes. Supercoiled rat FAAH cDNA (1 μg) was added to the cells and mixed. The voltage for the electroporation was set at 0.25 kV, and the capacitance was set at 960 μF. After electroporation, the cells were diluted into complete media (10 mL) and plated onto four 10-cm dishes. Because of the variability in the efficiency of electroporation, four different concentrations of cells were plated. The ratios used were 1:20, 1:10, and 1:5, with the remainder of the cells being added to the fourth dish. The cells were allowed to recover for 24 h before adding the selection media (complete media with 600 μg/mL G418). After 10 d, dishes were analyzed for surviving colonies of cells. Dishes with well-isolated colonies were used. Cells from individual colonies were isolated and tested.
(§2) The assay mixture consisted of 50 μL of the cell homogenate, 10 μL of the test compound, and 40 μL of anandamide [1-^3H-ethanolamine] (^3H-AEA, Perkin-Elmer, 10.3 Ci/mmol), which was added last, for a final tracer concentration of 80 nM. The reaction mixture was incubated at rt for 1 h. During the incubation, 96-well Multiscreen filter plates (catalog number MAFCNOB50; Millipore, Bedford, Mass., USA) were loaded with 25 μL of activated charcoal (Multiscreen column loader, catalog number MACL09625, Millipore) and washed once with 100 μL of MeOH. Also during the incubation, 96-well DYNEX MicroLite plates (catalog number NL510410) were loaded with 100 μL of MicroScint40 (catalog number 6013641, Packard Bioscience, Meriden, Conn., USA). After the 1 h incubation, 60 μL of the reaction mixture were transferred to the charcoal plates, which were then assembled on top of the DYNEX plates using Centrifuge Alignment Frames (catalog number MACF09604, Millipore). The unbound labeled ethanolamine was centrifuged through to the bottom plate (5 min at 2000 rpm), which was preloaded with the scintillant, as described above. The plates were sealed and left at rt for 1 h before counting on a Hewlett Packard TopCount.
(§3) Where activity is shown as greater than (>) a particular value, the value is the solubility limit of the compound in the assay medium or the highest concentration tested in the assay.

FAAH = target: T2, FAAH (Homo sapiens, UniProt O00519); test: Human FAAH assay (Assay Method 1), 3H-anandamide hydrolysis in cell homogenate; format: biochemical; parameters: expressed in transfected cells; alternatively T84 frozen cell pellets (endogenous FAAH)
T2 sequence (O00519 1-579): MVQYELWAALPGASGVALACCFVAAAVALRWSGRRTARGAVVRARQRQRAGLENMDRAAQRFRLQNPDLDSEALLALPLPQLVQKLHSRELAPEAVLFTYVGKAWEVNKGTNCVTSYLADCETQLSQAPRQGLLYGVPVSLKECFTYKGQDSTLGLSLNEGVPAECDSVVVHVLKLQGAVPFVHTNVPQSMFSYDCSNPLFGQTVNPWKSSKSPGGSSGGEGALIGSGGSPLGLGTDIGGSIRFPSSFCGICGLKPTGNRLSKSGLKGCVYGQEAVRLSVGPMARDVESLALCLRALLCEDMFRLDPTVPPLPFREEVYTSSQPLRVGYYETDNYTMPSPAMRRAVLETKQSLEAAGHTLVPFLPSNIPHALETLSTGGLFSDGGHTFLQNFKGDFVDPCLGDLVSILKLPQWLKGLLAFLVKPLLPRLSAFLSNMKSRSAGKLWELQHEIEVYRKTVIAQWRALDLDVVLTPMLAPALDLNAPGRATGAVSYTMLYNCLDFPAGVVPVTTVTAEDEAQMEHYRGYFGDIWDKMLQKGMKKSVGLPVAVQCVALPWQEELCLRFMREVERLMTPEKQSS
Protocol: A. Transfection of Cells with Human FAAH
as §1, with “Supercoiled human” for “Supercoiled rat”
as §2, with “[1-3H-ethanolamine]” for “[1-^3H-ethanolamine]”
as §3

SMILES | pIC50 (Rat FAAH-1) | pIC50 (FAAH)
Cc1ccc2sc(-c3cc(NC[C@H](N)c4ccccc4)ncn3)cc2c1 [Example 9, (1R)—N^2-[6-(5-Methyl-1-benzothiophen-2-yl)pyrimidin-4-yl]-1-phenylethane-1,2-diamine hydrochloride acid salt] | 6.49 | 7.70
N#Cc1ccc([C@H](N)CNc2cc(-c3ccc(C(F)(F)F)c(Cl)c3)ncn2)cc1 [Example 33, (1S)-4-{1-Amino-2-[6-(3-chloro-4-trifluoromethyl-phenyl)-pyrimidin-4-ylamino]-ethyl}-benzonitrile] | 6.00 | 6.24
CN(C)S(=O)(=O)c1ccc(-c2cc(NC[C@H](N)c3ccccc3)ncn2)cc1 [Example 23, 4-(6-{[(2R)-2-Amino-2-phenylethyl]amino}pyrimidin-4-yl)-N,N-dimethylbenzenesulfonamide hydrochloride acid salt] | 5.80 | 6.95
N[C@@H](CNc1cc(-c2ccc(OC(F)(F)F)c(F)c2)ncn1)c1ccccc1 [Example 8, (1R)—N^2-{6-[3-Fluoro-4-(trifluoromethoxy)phenyl]pyrimidin-4-yl}-1-phenylethane-1,2-diamine hydrochloride acid salt] | 6.77 | 7.30
N[C@H](CNc1cc(-c2ccc(C(F)(F)F)c(Cl)c2)ncn1)c1cccc(F)c1 [Example 36, (1S)—N^2-[6-(3-Chloro-4-trifluoromethyl-phenyl)-pyrimidin-4-yl]-1-(3-fluoro-phenyl)-ethane-1,2-diamine, trifluoroacetic acid salt] | 5.59 | 6.00
N[C@@H](CNc1cc(-c2ccc(Cl)cc2)ncn1)c1ccccc1 [Example 14, (1R)—N^2-[6-(4-Chlorophenyl)pyrimidin-4-yl]-1-phenylethane-1,2-diamine hydrochloride acid salt] | < 5.00 | 6.00
N[C@H](CNc1cc(-c2ccc(C(F)(F)F)c(Cl)c2)ncn1)c1ccc(F)cc1 [Example 28, (1S)—N^2-[6-(3-Chloro-4-trifluoromethyl-phenyl)-pyrimidin-4-yl]-1-(4-fluoro-phenyl)-ethane-1,2-diamine] | 6.05 | 6.22
N[C@@H](CNc1cc(-c2ccc(OC(F)(F)F)c(F)c2)ncn1)c1ccc(F)cc1 [Example 64, (1R)—N^2-1-(4-Fluoro-phenyl)-[6-(3-fluoro-4-trifluoromethoxy-phenyl)-pyrimidin-4-yl]-ethane-1,2-diamine, trifluoroacetic acid salt] | 7.12 | 7.18
CCOc1ccc(-c2cc(NC[C@H](N)c3ccccc3)ncn2)cc1 [Example 19, (1R)—N^2-[6-(4-Ethoxyphenyl)pyrimidin-4-yl]-1-phenylethane-1,2-diamine hydrochloride acid salt] | 6.00 | 7.15
N[C@@H](CNc1cc(-c2ccc(C(F)(F)F)c(Cl)c2)ncn1)c1cccc(F)c1 [Example 37, (1R)—N^2-[6-(3-Chloro-4-trifluoromethyl-phenyl)-pyrimidin-4-yl]-1-(3-fluoro-phenyl)-ethane-1,2-diamine, trifluoroacetic acid salt] | 6.96 | 7.41
N[C@H](CNc1cc(-c2ccc(C(F)(F)F)c(Cl)c2)ncn1)c1ccc2c(c1)OC(F)(F)O2 [Example 31, (1S)—N^2-[6-(3-Chloro-4-trifluoromethyl-phenyl)-pyrimidin-4-yl]-1-(2,2-difluoro-benzo[1,3]dioxol-5-yl)-ethane-1,2-diamine] | 6.11 | 6.20
CS(=O)(=O)c1ccc([C@@H](N)CNc2cc(-c3ccc(C(F)(F)F)c(Cl)c3)ncn2)cc1 [Example 63, (1R)—N^2-[6-(3-Chloro-4-trifluoromethyl-phenyl)-pyrimidin-4-yl]-1-(4-methanesulfonyl-phenyl)-ethane-1,2-diamine] | < 5.00 | < 5.00
N[C@@H](CNc1cc(-c2ccc3c(C(F)(F)F)noc3c2)ncn1)c1ccc(F)cc1 [Example 65, (1R)—N^2-1-(4-Fluoro-phenyl)-[6-(3-trifluoromethyl-benzo[d]isoxazol-6-yl)-pyrimidin-4-yl]ethane-1,2-diamine, trifluoroacetic acid salt] | 7.24 | 7.35
CCSc1ccc(-c2cc(NC[C@H](N)c3ccccc3)ncn2)cc1 [Example 22, (1R)—N^2-{6-[4-(Ethylsulfanyl)phenyl]pyrimidin-4-yl}-1-phenylethane-1,2-diamine hydrochloride acid salt] | 6.62 | 8.15
